Each block holds one molecule with its values, some of them ahead of it.
Tests used:
[1] = test system: human gastric cancer cell line MKN28; conditions: cited from earlier work
[2] = test system: U87MG glioma cells; conditions: cited from earlier work
[3] = target: T1, B-Raf (Homo sapiens, UniProt P15056); experiment: AlphaScreen kinase assay, B-Raf; type: biochemical; conditions: read-out: IC50, activity toward kinase B-Raf
T1 construct: purchased Upstate Biotechnology

[4] = target: T2, B-Raf V600E (Homo sapiens, UniProt P15056, V600E); experiment: AlphaScreen kinase assay, B-Raf V600E; type: biochemical; conditions: read-out: IC50, activity toward kinase B-Raf V600E
T2 construct: P4254. pFastBacBD-CDC37 BRAF D437-K722-X, V600E; His6 with pFastBac HT leader (TEV site) (N); made in house; host or cells: Sf9 (baculovirus; chaperone CDC37 co-expressed)
T2 sequence (P15056 with tags, fused parts or gaps V600E): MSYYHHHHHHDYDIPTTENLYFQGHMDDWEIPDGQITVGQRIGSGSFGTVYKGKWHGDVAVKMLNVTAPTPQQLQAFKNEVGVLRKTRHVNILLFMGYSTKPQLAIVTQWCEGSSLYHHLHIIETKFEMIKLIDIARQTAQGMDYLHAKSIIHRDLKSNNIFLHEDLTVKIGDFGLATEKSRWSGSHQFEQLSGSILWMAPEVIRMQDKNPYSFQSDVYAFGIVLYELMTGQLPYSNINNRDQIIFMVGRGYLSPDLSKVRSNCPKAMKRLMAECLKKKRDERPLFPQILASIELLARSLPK

[5] = target: T3, c-Raf-1 (Homo sapiens, UniProt P04049); experiment: AlphaScreen kinase assay, c-Raf-1; type: biochemical; conditions: read-out: IC50, activity toward kinase c-Raf-1
T3 construct: purchased Upstate Biotechnology
T3 sequence (P04049 whole entry): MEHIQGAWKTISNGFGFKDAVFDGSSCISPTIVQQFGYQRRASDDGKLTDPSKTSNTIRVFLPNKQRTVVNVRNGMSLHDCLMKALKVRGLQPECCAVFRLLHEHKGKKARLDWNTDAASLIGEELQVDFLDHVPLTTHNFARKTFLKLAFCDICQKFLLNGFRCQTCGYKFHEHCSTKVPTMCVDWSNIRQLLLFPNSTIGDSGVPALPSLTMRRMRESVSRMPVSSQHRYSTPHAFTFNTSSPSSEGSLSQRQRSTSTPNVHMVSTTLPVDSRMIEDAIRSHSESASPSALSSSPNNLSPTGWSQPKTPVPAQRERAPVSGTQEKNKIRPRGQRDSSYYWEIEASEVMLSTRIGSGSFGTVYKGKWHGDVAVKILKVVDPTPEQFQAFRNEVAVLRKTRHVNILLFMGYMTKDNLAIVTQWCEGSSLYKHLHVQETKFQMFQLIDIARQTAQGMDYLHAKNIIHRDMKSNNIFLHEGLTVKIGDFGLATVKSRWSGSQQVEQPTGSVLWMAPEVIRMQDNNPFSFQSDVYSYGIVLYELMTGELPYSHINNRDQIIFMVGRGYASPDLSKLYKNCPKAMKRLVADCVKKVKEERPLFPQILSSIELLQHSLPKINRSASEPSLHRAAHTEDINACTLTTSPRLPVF

[6] = target: T4, Flt3 (Homo sapiens, UniProt P36888); experiment: Z'-Lyte FRET kinase assay (Invitrogen), Flt3; type: biochemical; conditions: read-out: IC50, activity toward kinase Flt3
T4 construct: purchased Invitrogen (assay run by Invitrogen)
T4 sequence (P36888 27-993): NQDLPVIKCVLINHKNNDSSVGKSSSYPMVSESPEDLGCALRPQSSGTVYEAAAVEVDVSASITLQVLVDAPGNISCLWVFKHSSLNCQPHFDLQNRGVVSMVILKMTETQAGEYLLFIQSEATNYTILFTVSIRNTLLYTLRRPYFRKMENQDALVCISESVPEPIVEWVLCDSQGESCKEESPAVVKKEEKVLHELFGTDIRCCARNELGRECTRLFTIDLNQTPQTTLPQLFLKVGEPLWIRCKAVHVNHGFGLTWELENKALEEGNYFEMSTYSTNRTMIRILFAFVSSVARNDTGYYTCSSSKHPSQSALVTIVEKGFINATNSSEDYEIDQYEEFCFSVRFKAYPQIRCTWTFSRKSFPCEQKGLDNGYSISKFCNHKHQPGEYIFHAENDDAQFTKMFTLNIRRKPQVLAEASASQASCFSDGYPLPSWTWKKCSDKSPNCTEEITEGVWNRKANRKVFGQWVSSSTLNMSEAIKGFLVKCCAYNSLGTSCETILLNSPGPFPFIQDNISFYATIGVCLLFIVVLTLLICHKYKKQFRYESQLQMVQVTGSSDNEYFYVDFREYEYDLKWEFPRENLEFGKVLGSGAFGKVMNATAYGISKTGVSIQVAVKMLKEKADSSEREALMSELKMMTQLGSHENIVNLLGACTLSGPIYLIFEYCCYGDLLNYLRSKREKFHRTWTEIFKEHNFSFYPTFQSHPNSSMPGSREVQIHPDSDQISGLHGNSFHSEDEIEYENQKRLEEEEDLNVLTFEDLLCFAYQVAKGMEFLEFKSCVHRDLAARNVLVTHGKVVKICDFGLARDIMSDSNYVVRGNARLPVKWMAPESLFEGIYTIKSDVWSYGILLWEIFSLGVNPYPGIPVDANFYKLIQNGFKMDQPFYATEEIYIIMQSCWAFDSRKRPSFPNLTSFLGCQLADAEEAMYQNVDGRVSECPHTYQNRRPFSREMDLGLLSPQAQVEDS
Excerpt: The effect of potential modulators of kinase activity can be measured in a variety of different assays known in the art. For example, direct radiometric, indirect FRET or AlphaScreen assays may be used to assess the level of phosphorylation of a substrate in the presence of test compounds in order to determine the inhibitory affect of the compound on the kinase. Invitrogen (Carlsbad, Calif.) uses a FRET based assay for Btk, EGFR, EphB2, Flt3, lrak4, Kdr, MAP2K1, MAPKAPK2, PDGFRB, PKC theta, Stk6 and Yes. For these assays, compounds of the invention were screened by Invitrogen using Z′-Lyte™ kinase assay.
Briefly, the Invitrogen kinase assay involves use of a specific peptide substrate optimized for each kinase, containing a fluorophore at each end that make up the FRET pair. The peptide sensitivity to proteolytic cleavage depends on phosphorylation of the peptide. Non-phosphorylated peptide is cleaved by a protease while peptide phosphorylated by the kinase is not cleaved. Cleavage of the peptide disrupts the FRET between the donor (coumarin) and acceptor (fluorescein) fluorophores, resulting in an increase in the ratio of donor emission to acceptor emission. The emission ratio of coumarin to fluorescein is used to assess the reaction progress. The extent of phosphorylation is determined from the emission ratio, which is low when the kinase is active (phosphorylated peptide is not cleaved, FRET pair connected) or higher for inhibited kinase (non-phosphorylated peptide is cleaved, FRET pair separated). Thus, the assay involves a kinase reaction in the presence of varying concentrations of a given compound, a development reaction with site specific protease, and detection of the fluorescent emission ratio of coumarin and fluorscein. […] Reaction conditions for each kinase are determined to provide optimal reaction times, incubation temperature, kinase and ATP concentrations. Test samples are made up in 1× kinase buffer (50 mM HEPES pH 7.5, 50 mM MgCl2, 5 mM EGTA, 0.05% BRIJ-35) and compound at desired concentration prepared in DMSO such that the final DMSO is 1%. […] Typically, assay plates are prepared to 10 μl final volume per sample, adding 2.5 μl of compound at 4× the desired concentration in 4% DMSO (serial dilution of compound provides concentration curve), 5 μl of the desired kinase mixed with Z′-LYTE™ peptide substrate (2× in 2× kinase buffer, final peptide at 2 μM), and 2.5 μl of 4×ATP solution. All kinase except for MAP2K1 were at 10 μM ATP in the kinase reaction, while MAP2K1 was at 100 μM. Samples are mixed and the kinase reaction is incubated 1 hour at room temperature, after which 5 μl of development solution is added and mixed. After incubation for another 1 hour at room temperature, 5 μl of stop reagent is added to each sample and mixed. The fluorescence signals are measured to determine the emission ratio.

[7] = target: T5, Kdr (Homo sapiens, UniProt P35968); experiment: Z'-Lyte FRET kinase assay (Invitrogen), Kdr; type: biochemical; conditions: read-out: IC50, activity toward kinase Kdr
T5 construct: purchased Invitrogen (assay run by Invitrogen)
T5 sequence (P35968 20-1356): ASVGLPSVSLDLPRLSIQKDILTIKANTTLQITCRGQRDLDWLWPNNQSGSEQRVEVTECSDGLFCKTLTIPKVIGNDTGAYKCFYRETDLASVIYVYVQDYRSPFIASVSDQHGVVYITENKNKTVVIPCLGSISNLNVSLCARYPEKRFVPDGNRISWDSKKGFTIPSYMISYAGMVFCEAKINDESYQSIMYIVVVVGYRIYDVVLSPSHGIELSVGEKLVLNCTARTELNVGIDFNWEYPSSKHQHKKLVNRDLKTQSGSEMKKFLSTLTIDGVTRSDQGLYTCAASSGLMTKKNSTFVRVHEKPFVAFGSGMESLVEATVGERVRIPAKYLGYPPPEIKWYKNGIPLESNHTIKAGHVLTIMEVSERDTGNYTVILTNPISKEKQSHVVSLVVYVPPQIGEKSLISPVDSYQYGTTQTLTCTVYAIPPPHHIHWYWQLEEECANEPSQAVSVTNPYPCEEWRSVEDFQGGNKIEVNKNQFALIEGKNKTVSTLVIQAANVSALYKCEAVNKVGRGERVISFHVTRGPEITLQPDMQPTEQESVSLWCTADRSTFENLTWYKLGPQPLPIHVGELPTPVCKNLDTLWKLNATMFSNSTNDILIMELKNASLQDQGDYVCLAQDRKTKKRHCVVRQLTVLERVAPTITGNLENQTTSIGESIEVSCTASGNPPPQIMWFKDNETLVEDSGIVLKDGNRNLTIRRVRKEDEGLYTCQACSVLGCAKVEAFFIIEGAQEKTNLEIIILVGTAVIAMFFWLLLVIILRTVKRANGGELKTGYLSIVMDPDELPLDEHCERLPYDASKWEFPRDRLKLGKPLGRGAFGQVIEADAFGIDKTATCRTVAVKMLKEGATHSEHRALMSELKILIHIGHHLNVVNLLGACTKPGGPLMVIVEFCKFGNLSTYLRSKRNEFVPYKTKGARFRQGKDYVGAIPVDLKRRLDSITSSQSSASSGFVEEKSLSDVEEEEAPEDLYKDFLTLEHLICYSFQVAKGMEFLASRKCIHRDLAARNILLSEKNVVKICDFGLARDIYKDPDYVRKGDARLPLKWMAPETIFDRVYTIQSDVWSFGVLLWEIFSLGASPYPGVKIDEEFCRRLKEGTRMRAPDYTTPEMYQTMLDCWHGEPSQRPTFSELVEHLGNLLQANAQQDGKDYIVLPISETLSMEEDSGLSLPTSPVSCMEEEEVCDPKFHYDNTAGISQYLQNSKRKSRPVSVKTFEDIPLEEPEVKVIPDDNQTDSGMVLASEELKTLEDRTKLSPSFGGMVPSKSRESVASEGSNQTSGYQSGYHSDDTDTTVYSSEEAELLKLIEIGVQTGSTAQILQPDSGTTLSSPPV

[8] = target: ALK (Homo sapiens, UniProt Q9UM73); experiment: AlphaScreen kinase assay, ALK; type: biochemical; conditions: read-out: IC50, activity toward kinase ALK
Chain of ALK (Q9UM73 19-1620): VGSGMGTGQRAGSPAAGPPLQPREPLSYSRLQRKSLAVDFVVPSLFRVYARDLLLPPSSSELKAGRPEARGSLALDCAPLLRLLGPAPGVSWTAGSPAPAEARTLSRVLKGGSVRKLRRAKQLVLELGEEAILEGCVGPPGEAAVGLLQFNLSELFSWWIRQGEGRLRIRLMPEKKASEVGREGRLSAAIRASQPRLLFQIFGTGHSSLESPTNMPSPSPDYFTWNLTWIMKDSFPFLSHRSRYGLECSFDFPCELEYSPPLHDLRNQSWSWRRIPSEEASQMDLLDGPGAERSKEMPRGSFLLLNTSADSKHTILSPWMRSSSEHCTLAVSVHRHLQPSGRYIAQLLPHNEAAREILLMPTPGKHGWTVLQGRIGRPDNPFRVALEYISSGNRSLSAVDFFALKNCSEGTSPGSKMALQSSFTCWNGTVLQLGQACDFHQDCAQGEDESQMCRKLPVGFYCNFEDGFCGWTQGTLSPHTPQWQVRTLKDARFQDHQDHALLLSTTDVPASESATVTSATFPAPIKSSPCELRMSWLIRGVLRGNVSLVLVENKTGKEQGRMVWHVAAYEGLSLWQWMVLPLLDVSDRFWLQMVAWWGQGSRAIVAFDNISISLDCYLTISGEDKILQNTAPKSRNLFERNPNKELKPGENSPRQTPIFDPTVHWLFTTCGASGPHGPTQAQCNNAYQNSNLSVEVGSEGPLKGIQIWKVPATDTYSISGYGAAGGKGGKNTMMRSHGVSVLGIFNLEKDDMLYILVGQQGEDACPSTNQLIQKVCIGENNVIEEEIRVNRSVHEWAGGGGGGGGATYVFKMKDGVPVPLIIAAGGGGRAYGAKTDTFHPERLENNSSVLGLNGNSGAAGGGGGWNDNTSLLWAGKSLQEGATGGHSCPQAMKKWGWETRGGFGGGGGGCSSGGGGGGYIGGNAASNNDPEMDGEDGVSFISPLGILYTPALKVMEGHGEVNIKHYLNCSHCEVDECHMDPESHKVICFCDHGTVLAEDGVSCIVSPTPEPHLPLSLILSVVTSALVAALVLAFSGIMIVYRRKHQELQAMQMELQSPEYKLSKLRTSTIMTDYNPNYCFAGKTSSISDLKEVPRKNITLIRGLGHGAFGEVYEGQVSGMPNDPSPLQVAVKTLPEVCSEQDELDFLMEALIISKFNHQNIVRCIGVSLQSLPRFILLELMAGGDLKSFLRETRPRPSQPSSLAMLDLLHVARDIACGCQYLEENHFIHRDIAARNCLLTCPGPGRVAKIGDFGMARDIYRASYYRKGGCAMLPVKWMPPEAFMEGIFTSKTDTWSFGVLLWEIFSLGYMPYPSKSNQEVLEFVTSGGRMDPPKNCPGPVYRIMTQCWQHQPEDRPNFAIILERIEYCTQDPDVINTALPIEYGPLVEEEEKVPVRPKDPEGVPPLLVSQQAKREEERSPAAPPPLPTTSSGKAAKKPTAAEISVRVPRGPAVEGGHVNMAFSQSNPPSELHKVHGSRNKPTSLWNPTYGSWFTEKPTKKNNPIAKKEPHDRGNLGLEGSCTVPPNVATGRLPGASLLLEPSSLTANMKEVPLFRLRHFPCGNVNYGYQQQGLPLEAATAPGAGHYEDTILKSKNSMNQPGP
Excerpt: (§1) AlphaScreen assay was used to screen additional kinases. The assay is similarly dependent on the phosphorylation of a peptide substrate. In this assay, an antibody that recognizes phosphorylated substrate is bound to an acceptor bead. The peptide substrate is attached to biotin, which binds to a donor head that contains streptavidin. Thus phosphorylated substrate is bound by antibody and streptavidin, bringing the donor and acceptor heads into close proximity when kinase is not inhibited. The donor produces singlet oxygen which results in emission from the acceptor when they are in close proximity. Conversely, when kinase is inhibited, the donor and acceptor beads are not associated and the emission from the acceptor is reduced.
(§2) AlphaScreen assays were done using compounds dissolved in DMSO to a concentration of 20 mM. The compounds were diluted accordingly to the desired final concentrations in each sample well, using 1:3 serial dilution for a total of 8 concentration points.

[9] = target: Frk (Homo sapiens, UniProt P42685); experiment: AlphaScreen kinase assay, Frk; type: biochemical; conditions: read-out: IC50, activity toward kinase Frk
Chain of Frk (P42685 whole entry): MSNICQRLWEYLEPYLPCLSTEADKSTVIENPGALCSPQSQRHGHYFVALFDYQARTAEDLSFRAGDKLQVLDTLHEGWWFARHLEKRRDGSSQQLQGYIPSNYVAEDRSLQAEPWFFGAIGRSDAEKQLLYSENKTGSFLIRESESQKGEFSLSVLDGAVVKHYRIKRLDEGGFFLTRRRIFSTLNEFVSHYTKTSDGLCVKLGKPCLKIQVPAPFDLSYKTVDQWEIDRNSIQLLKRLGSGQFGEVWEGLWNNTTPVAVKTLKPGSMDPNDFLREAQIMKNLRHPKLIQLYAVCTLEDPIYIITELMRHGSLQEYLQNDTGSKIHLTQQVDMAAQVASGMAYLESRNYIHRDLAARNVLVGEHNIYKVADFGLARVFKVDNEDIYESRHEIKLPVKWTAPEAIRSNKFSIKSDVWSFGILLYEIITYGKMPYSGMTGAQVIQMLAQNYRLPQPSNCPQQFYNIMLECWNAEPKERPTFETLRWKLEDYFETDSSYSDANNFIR
Excerpt: as §1, §2

[10] = target: TrkA (Homo sapiens, UniProt P04629); experiment: AlphaScreen kinase assay, TrkA; type: biochemical; conditions: read-out: IC50, activity toward kinase TrkA
Excerpt: as §1, §2

[11] = target: Brk (Homo sapiens, UniProt Q13882); experiment: AlphaScreen kinase assay, Brk; type: biochemical; conditions: read-out: IC50, activity toward kinase Brk
Chain of Brk (Q13882 whole entry): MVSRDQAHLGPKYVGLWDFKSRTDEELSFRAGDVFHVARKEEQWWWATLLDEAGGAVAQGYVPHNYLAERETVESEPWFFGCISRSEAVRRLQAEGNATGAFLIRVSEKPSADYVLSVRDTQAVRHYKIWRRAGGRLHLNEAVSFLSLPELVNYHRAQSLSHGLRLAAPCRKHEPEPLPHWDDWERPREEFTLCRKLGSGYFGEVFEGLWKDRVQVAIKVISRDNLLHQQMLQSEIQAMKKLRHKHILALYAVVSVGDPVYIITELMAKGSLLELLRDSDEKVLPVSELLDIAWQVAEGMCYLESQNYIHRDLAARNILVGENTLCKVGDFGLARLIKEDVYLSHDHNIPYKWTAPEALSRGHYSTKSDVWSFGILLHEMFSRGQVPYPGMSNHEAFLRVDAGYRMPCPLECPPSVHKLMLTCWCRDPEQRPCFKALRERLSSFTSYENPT
Excerpt: as §1, §2

[12] = test system: AML blasts harboring FLT3/ITD mutations; conditions: primary AML blasts harboring FLT3/ITD mutations; cited from earlier work
[13] = test system: primary cultures of human and murine microglia; conditions: stimulated with endotoxins or Abeta 1-40; cited from earlier work
[14] = test system: brain TNF production; conditions: mice, intracerebroventricular lipopolysaccharide; cited from earlier work

SMILES: COc1ccc2c(c1)c(CC(=O)O)c(C)n2C(=O)c1ccc(Cl)cc1 [indomethacin]
proliferation and growth of MKN28 cells [1]: significantly inhibit proliferation and growth

SMILES: CS(=O)(=O)Nc1ccc([N+](=O)[O-])cc1OC1CCCCC1 [NS-398]
proliferation and growth of MKN28 cells [1]: significantly inhibit proliferation and growth

SMILES: CN[C@@H]1C[C@H]2O[C@@](C)([C@@H]1OC)n1c3ccccc3c3c4c(c5c6ccccc6n2c5c31)C(=O)N[C@H]4O [UCN-01, 7-hydroxystaurosporine]
increase of the cytotoxicity of TMZ ([2]; combined with temozolomide): 5 fold | toxicity of the inhibitor alone ([2]; without TMZ): not in itself toxic

IC50 [3]: ≤ 10 µM | IC50 [4]: ≤ 10 µM | IC50 [5]: ≤ 10 µM | IC50 [6]: ≤ 10 µM | IC50 [7]: ≤ 10 µM | IC50 [8]: ≤ 10 µM | IC50 [9]: ≤ 10 µM | IC50 [10]: ≤ 10 µM | IC50 [11]: ≤ 10 µM
SMILES: CCCS(=O)(=O)Nc1ccc(F)c(C(OC)c2c[nH]c3ncc(OC)cc23)c1F (stereo not shown) [Compound P-1244, Propane-1-sulfonic acid {2,4-difluoro-3-[methoxy-(5-methoxy-1H-pyrrolo[2,3-b]pyridin-3-yl)-methyl]-phenyl}-amide]

SMILES: Cc1cc2ncc(-c3ccccc3)nc2cc1C [AG1295]
cytotoxicity to AML blasts [12]: specifically cytotoxic

SMILES: CCSCc1ccc2c(c1)c1c3c(c4c5cc(CSCC)ccc5n5c4c1n2[C@H]1C[C@](O)(C(=O)OC)[C@]5(C)O1)CNC3=O [CEP-1347]
cytokine production (TNF-alpha, IL-6, MCP-1) [13]: reduced cytokine production | brain TNF production [14]: inhibited brain TNF production

Reference: US8415469B2, “Compounds and methods for kinase modulation, and indications therefor” (Plexxikon Inc., priority 2005, dated 2013)
